Results reported in patent publication US8716284B2, “Adamantyl diamide derivatives and uses of same” (H. Lundbeck A/S, priority 2008, dated 2014).

target: T1, rat metabotropic glutamate receptor 5 (mGluR5) (Rattus norvegicus, UniProt P31424); assay: Calcium mobilization assay (FLIPR) for negative or positive allosteric activity, HEK 293 cells; format: cell-based; settings: HEK293, negative allosteric modulation, inhibition of EC80 glutamate response; read-out: FLIPR maximum inhibition
T1 construct: expressed in transfected cells; host or cells: HEK 293
Summary of the method: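 HEK 293 cells stably expressing rat mGluR5, Fluo-4 loaded in HEPES-buffered HBSS pH 7.4 with 0.1% BSA and probenecid. Compound added with EC20 (potentiation) or EC80 (inhibition) glutamate; fluorescence read over 3 min at room temperature. Basal-subtracted maximum fluorescence change fitted to Hill equation.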

T1 sequence (P31424 21-1171 isoform P31424-2 limits assumed): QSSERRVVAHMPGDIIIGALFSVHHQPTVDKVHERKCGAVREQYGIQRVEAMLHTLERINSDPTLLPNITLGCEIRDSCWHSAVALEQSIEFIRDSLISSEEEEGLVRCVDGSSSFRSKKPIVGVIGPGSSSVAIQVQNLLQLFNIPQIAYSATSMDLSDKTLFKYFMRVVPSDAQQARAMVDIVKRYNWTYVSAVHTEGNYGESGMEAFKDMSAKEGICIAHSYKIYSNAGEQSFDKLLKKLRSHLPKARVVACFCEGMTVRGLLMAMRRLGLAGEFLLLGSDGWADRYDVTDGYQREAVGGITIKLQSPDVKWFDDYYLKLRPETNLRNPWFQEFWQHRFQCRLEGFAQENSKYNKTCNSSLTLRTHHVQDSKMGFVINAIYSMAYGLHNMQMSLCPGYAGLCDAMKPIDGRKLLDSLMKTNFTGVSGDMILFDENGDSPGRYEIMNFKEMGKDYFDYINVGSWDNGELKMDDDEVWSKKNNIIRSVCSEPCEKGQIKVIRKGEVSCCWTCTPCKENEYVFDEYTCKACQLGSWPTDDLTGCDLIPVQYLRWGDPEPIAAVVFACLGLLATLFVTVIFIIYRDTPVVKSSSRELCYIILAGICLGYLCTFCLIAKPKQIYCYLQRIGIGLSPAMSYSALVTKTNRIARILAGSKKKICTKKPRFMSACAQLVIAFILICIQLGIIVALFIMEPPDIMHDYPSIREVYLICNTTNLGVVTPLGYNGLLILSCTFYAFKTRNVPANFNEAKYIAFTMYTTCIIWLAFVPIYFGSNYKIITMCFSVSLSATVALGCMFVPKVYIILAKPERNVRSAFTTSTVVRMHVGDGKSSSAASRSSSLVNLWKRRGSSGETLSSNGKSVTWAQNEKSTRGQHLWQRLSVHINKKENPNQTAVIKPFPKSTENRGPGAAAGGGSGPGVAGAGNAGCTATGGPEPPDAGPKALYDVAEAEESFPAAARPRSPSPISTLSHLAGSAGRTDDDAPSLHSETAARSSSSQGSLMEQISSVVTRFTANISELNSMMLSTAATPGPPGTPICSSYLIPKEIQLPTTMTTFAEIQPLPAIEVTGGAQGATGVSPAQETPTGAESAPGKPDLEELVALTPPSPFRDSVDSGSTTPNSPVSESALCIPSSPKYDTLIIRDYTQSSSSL

Row | Emax [%] | SMILES
1 | 63 to 99 | Cc1ccc2nc(C(=O)NC34CC5CC(CC(NC(=O)c6ccccn6)(C5)C3)C4)cn2c1 [Example 90, 6-Methyl-imidazo[1,2-a]pyridine-2-carboxylic acid {3-[(pyridine-2-carbonyl)-amino]-adamantan-1-yl}-amide]
2 | 63 to 99 | Cc1ccn2cc(C(=O)NC34CC5CC(CC(NC(=O)c6ccccn6)(C5)C3)C4)nc2c1 [Example 91, 7-Methyl-imidazo[1,2-a]pyridine-2-carboxylic acid {3-[(pyridine-2-carbonyl)-amino]-adamantan-1-yl}-amide]
3 | 63 to 99 | Cc1cccc2nc(C(=O)NC34CC5CC(CC(NC(=O)c6ccccn6)(C5)C3)C4)cn12 [Example 92, 5-Methyl-imidazo[1,2-a]pyridine-2-carboxylic acid {3-[(pyridine-2-carbonyl)-amino]-adamantan-1-yl}-amide]
4 | 63 to 99 | Cn1ccc(C(=O)NC23CC4CC(CC(NC(=O)c5cccc(F)c5)(C4)C2)C3)n1 [Example 97, 1-Methyl-1H-pyrazole-3-carboxylic acid [3-(3-fluoro-benzoylamino)-adamantan-1-yl]-amide]
5 | 63 to 99 | O=C(NC12CC3CC(C1)CC(NC(=O)c1cn4cc(Cl)ccc4n1)(C3)C2)c1cccc(F)c1 [Example 98, 6-Chloro-imidazo[1,2-a]pyridine-2-carboxylic acid [3-(3-fluoro-benzoylamino)-adamantan-1-yl]-amide]
6 | 63 to 99 | O=C(NC12CC3CC(C1)CC(NC(=O)c1ccn4ccnc4c1)(C3)C2)c1cccc(F)c1 [Example 99, Imidazo[1,2-a]pyridine-7-carboxylic acid [3-(3-fluoro-benzoylamino)-adamantan-1-yl]-amide]
7 | 63 to 99 | O=C(NC12CC3CC(C1)CC(NC(=O)c1cn4ccccc4n1)(C3)C2)c1cccc(F)c1 [Example 100, Imidazo[1,2-a]pyridine-2-carboxylic acid [3-(3-fluoro-benzoylamino)-adamantan-1-yl]-amide]
8 | 63 to 99 | O=C(NC12CC3CC(C1)CC(NC(=O)c1ccc4nccn4c1)(C3)C2)c1cccc(F)c1 [Example 101, Imidazo[1,2-a]pyridine-6-carboxylic acid [3-(3-fluoro-benzoylamino)-adamantan-1-yl]-amide]
9 | 63 to 99 | Cc1ccc2nc(C(=O)NC34CC5CC(CC(NC(=O)c6cccc(F)c6)(C5)C3)C4)cn2c1 [Example 102, 6-Methyl-imidazo[1,2-a]pyridine-2-carboxylic acid [3-(3-fluoro-benzoylamino)-adamantan-1-yl]-amide]
10 | 63 to 99 | Cc1cccc2nc(C(=O)NC34CC5CC(CC(NC(=O)c6cccc(F)c6)(C5)C3)C4)cn12 [Example 103, 5-Methyl-imidazo[1,2-a]pyridine-2-carboxylic acid [3-(3-fluoro-benzoylamino)-adamantan-1-yl]-amide]
11 | 63 to 99 | Cc1ccn2cc(C(=O)NC34CC5CC(CC(NC(=O)c6cccc(F)c6)(C5)C3)C4)nc2c1 [Example 104, 7-Methyl-imidazo[1,2-a]pyridine-2-carboxylic acid [3-(3-fluoro-benzoylamino)-adamantan-1-yl]-amide]
12 | 70 to 99 | Cc1cc(C(=O)NC23CC4CC(CC(NC(=O)c5ccccn5)(C4)C2)C3)nc(C)n1 [Example 106, 2,6-Dimethyl-pyrimidine-4-carboxylic acid {3-[(pyridine-2-carbonyl)-amino]-adamantan-1-yl}-amide]
13 | 70 to 99 | O=C(NC12CC3CC(C1)CC(NC(=O)c1cc(F)ccn1)(C3)C2)c1ccccn1 [Example 108, 4-Fluoro-pyridine-2-carboxylic acid{3-[(pyridine-2-carbonyl)-amino]-adamantan-1-yl}-amide]
14 | 70 to 99 | Cc1cc(C(=O)NC23CC4CC(CC(NC(=O)c5ccccn5)(C4)C2)C3)nn1C [Example 109, Pyridine-2-carboxylic acid {3-[(1,5-dimethyl-1H-pyrazole-3-carbonyl)-amino]-adamantan-1-yl}-amide]
15 | 70 to 99 | Cc1nc(C(=O)NC23CC4CC(CC(NC(=O)c5ccccn5)(C4)C2)C3)cs1 [Example 110, Pyridine-2-carboxylic acid {3-[(2-methyl-thiazole-4-carbonyl)-amino]-adamantan-1-yl)-amide]
16 | 70 to 99 | O=C(NC12CC3CC(C1)CC(NC(=O)c1ccc(F)cn1)(C3)C2)c1ccccn1 [Example 111, 5-Fluoro-pyridine-2-carboxylic acid {3-[(pyridine-2-carbonyl)-amino]-adamantan-1-yl}-amide]
17 | 70 to 99 | O=C(NC12CC3CC(C1)CC(NC(=O)c1ccnc(C(F)(F)F)n1)(C3)C2)c1ccccn1 [Example 112, 2-Trifluoromethyl-pyrimidine-4-carboxylic acid {3-[(pyridine-2-carbonyl)-amino]-adamantan-1-yl}-amide]
18 | 70 to 99 | O=C(NC12CC3CC(C1)CC(NC(=O)c1nccc(C(F)(F)F)n1)(C3)C2)c1ccccn1 [Example 113, 4-Trifluoromethyl-pyrimidine-2-carboxylic acid {3-[(pyridine-2-carbonyl)-amino]-adamantan-1-yl}-amide]

Row | Emax [%] | SMILES
19 | 70 to 99 | Cc1cccc(C(=O)NC23CC4CC(CC(NC(=O)c5cccc(N(C)C)c5)(C4)C2)C3)n1 [Example 114, 6-Methyl-pyridine-2-carboxylic acid [3-(3-dimethyl-amino-benzoylamino)-adamantan-1-yl]-amide]
20 | 70 to 99 | Cc1cccc(C(=O)NC23CC4CC(CC(NC(=O)c5cccnc5)(C4)C2)C3)n1 [Example 115, 6-Methyl-pyridine-2-carboxylic acid {3-[(pyridine-3-carbonyl)-amino]-adamantan-1-yl}-amide]
21 | 70 to 99 | Cc1cccc(C(=O)NC23CC4CC(CC(NC(=O)c5ccncc5)(C4)C2)C3)n1 [Example 116, 6-Methyl-pyridine-2-carboxylic acid {3-[(pyridine-4-carbonyl)-amino]-adamantan-1-yl}-amide]
22 | 70 to 99 | Cc1cccc(C(=O)NC23CC4CC(C2)CC(NC(=O)c2cccc(N)n2)(C4)C3)n1 [Example 117, 6-Methyl-pyridine-2-carboxylic acid {3-[(6-aminopyridine-2-carbonyl)-amino]-adamantan-1-yl}-amide]
23 | 70 to 99 | Cc1cccc(C(=O)NC23CC4CC(C2)CC(NC(=O)c2cc(C)nc(C)n2)(C4)C3)n1 [Example 118, 2,6-Dimethyl-pyrimidine-4-carboxylic acid {3-[(6-methyl-pyridine-2-carbonyl)-amino]-adamantan-1-yl}-amide]
24 | 70 to 99 | Cc1cccc(C(=O)NC23CC4CC(C2)CC(NC(=O)c2ncccn2)(C4)C3)n1 [Example 121, Pyrimidine-2-carboxylic acid {3-[(6-methyl-pyridine-2-carbonyl)-amino]-adamantan-1-yl}-amide]
25 | 70 to 99 | Cc1cccc(C(=O)NC23CC4CC(CC(NC(=O)c5ccc6ocnc6c5)(C4)C2)C3)n1 [Example 122, Benzoxazole-5-carboxylic acid {3-[(6-methyl-pyridine-2-carbonyl)-amino]-adamantan-1-yl}-amide]
26 | 70 to 99 | Cc1cccc(C(=O)NC23CC4CC(C2)CC(NC(=O)c2ccc5cnccc5n2)(C4)C3)n1 [Example 123, [1,6]Naphthyridine-2-carboxylic acid {3-[(6-methyl-pyridine-2-carbonyl)-amino]-adamantan-1-yl}-amide]
27 | 70 to 99 | Cc1cccc(C(=O)NC23CC4CC(CC(NC(=O)c5ccc6c(c5)OCCO6)(C4)C2)C3)n1 [Example 124, 6-Methyl-pyridine-2-carboxylic acid {3-[(2,3-dihydro-benzo[1,4]dioxine-6-carbonyl)-amino]-adamantan-1-yl}-amide]
28 | 70 to 99 | Cc1cccc(C(=O)NC23CC4CC(CC(NC(=O)c5cc(F)ccn5)(C4)C2)C3)n1 [Example 125, 6-Methyl-pyridine-2-carboxylic acid {3-[(4-fluoropyridine-2-carbonyl)-amino]-adamantan-1-yl}-amide]
29 | 70 to 99 | Cc1cccc(C(=O)NC23CC4CC(C2)CC(NC(=O)c2cc(C)n(C)n2)(C4)C3)n1 [Example 127, 6-Methyl-pyridine-2-carboxylic acid {3-[(1,5-dimethyl-1H-pyrazole-3-carbonyl)-amino]-adamantan-1-yl}-amide]
30 | 70 to 99 | Cc1cccc(C(=O)NC23CC4CC(C2)CC(NC(=O)c2ncccc2F)(C4)C3)n1 [Example 129, 6-Methyl-pyridine-2-carboxylic acid {3-[(3-fluoro-pyridine-2-carbonyl)-amino]-adamantan-1-yl}-amide]
31 | 70 to 99 | Cc1ccc(C(=O)NC23CC4CC(C2)CC(NC(=O)c2cccc(C)n2)(C4)C3)nc1 [Example 130, 6-Methyl-pyridine-2-carboxylic acid {3-[(5-methyl-pyridine-2-carbonyl)-amino]-adamantan-1-yl}-amide]
32 | 70 to 99 | Cc1cccc(C(=O)NC23CC4CC(CC(NC(=O)c5cc(O)ccn5)(C4)C2)C3)n1 [Example 132, 6-Methyl-pyridine-2-carboxylic acid {3-[(4-hydroxy-pyridine-2-carbonyl)-amino]-adamantan-1-yl}-amide]
33 | 70 to 99 | Cc1cccc(C(=O)NC23CC4CC(C2)CC(NC(=O)c2cccc(C(N)=O)n2)(C4)C3)n1 [Example 133, Pyridine-2,6-dicarboxylic acid 2-amide 6-({3-[(6-methyl-pyridine-2-carbonyl)-amino]-adamantan-1-yl}-amide)]
34 | 70 to 99 | Cc1cccc(C(=O)NC23CC4CC(C2)CC(NC(=O)c2cccc(CO)n2)(C4)C3)n1 [Example 134, 6-Methyl-pyridine-2-carboxylic acid {3-[(6-hydroxymethylpyridine-2-carbonyl)-amino]-adamantan-1-yl}-amide]
35 | 70 to 99 | Cc1cccc(C(=O)NC23CC4CC(C2)CC(NC(=O)c2cccc(F)n2)(C4)C3)n1 [Example 135, 6-Methyl-pyridine-2-carboxylic acid {3-[(6-fluoro-pyridine-2-carbonyl)-amino]-adamantan-1-yl}-amide]
